In general, Ki refers to a measure of affinity in units of concentration, obtained from inhibition or displacement.

This passage reports Ki and EC90 results from patent US7432275B2, “Carboxylic acid, phosphate or phosphonate substituted quinazolin-4-ylamine analogues as capsaicin receptor modulators” (Neurogen Corporation, priority 2002, dated 2008).

Test [1] concerns the target T1, human capsaicin receptor (Homo sapiens, UniProt Q8NER1). The experiment in a line: Capsaicin receptor binding assay ([3H]RTX competition, membranes of VR1-transfected HEK293 cells). The source says:
This Example illustrates the preparation of VR1-transfected cells and membrane preparations for use in binding assays (Example 5) and functional assays (Example 6).
This Example illustrates a representative assay of capsaicin receptor binding that may be used to determine the binding affinity of compounds for the capsaicin (VR1) receptor.
Binding studies with [^3H] […] 262:883-888.

Test [2] has as its target T1, human capsaicin receptor. The test can be described thus: Calcium mobilization assay. The test is classed as cell-based. To be noted: capsaicin used as positive control; read-out: approximate EC90 concentration. As for the experimental part:
Cells transfected with expression plasmids (as described in Example 4) and thereby expressing human capsaicin receptor are seeded and grown to 70-90% confluency in FALCON black-walled, clear-bottomed 96-well plates (#3904, BECTON-DICKINSON, Franklin Lakes, N.J.). […] After the incubation, the dye is emptied from the plates, and the cells are washed once with KRH buffer, and resuspended in KRH buffer.
To measure the ability of a test compound to agonize or antagonize a calcium mobilization response in cells expressing capsaicin receptors to capsaicin or other vanilloid agonist, the EC50 of the agonist capsaicin is first determined. An additional 20 μl of KRH buffer and 1 μl DMSO is added to each well of cells, prepared as described above. 100 μl capsaicin in KRH buffer is automatically transferred by the FLIPR instrument to each well. Capsaicin-induced calcium mobilization is monitored using either FLUOROSKAN ASCENT (Labsystems; Franklin, Mass.) or FLIPR (fluorometric imaging plate reader system; Molecular Devices, Sunnyvale, Calif.) instruments. […] In this equation, y is the maximum fluorescence signal, x is the concentration of the agonist or antagonist (in this case, capsaicin), a is the Emax, b corresponds to the EC50 value and c is the Hill coefficient. […]
Background: Calcium flux is commonly read through the fluorescence of an indicator in the cells.

The mark [3] stands for this setting: determined as described in Example 5, read-out: Ki.

Where two headings read alike, the source gives them in different places. Some results are limits rather than exact numbers.

T1 sequence (Q8NER1 whole entry): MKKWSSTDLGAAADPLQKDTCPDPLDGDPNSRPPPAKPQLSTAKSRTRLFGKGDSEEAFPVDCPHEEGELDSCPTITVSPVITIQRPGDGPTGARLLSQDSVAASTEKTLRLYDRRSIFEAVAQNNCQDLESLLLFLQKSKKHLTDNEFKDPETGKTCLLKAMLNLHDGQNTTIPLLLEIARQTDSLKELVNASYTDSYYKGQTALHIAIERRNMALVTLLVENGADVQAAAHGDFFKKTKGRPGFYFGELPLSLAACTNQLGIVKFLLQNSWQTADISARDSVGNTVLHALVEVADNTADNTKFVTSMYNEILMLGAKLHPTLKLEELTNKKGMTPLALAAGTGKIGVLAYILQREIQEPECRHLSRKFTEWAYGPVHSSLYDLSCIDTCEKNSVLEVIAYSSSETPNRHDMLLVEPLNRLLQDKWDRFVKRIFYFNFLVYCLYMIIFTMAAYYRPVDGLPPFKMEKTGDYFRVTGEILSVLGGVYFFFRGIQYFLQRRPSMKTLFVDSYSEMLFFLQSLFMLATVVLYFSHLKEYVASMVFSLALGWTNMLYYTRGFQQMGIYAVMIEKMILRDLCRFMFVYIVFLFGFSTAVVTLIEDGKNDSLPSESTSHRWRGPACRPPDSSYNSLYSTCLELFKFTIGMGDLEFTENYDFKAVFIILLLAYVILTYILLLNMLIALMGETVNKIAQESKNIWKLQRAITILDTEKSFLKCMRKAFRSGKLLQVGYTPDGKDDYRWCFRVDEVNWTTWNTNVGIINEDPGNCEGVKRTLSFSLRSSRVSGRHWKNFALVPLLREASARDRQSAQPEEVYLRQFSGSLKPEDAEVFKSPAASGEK

As to `COCc1nc2nc(-c3ncccc3C(F)(F)F)ccc2c(Nc2ccc(C(F)(F)F)cc2)c1C(=O)O` [Compound 45, 2-Methoxymethyl-4-(4-trifluoromethyl-phenylamino)-7-(3-trifluoromethyl-pyridin-2-yl)-[1,8]naphthyridine-3-carboxylic acid], on human capsaicin receptor [1] (setting [3]), the inhibitory constant (Ki) is under 1000 nM.
In the case of `CC(C)(C)c1ccc(Nc2ncnc3cc(-c4ncccc4C(F)(F)F)cnc23)cc1OCC(=O)O` [Compound 13, {2-tert-Butyl-5-[7-(3-trifluoromethyl-pyridin-2-yl)-pyrido[3,2-d]pyrimidin-4-ylamino]-phenoxy}-acetic acid], the Ki on human capsaicin receptor [1] (setting [3]) was under 1000 nM.
On human capsaicin receptor [1], `CCOP(=O)(Cc1nc(Nc2ccc(C(C)(C)C)cc2)c2ccc(-c3ncccc3C)cc2n1)OCC` [Compound 16, [4-(4-tert-Butyl-phenylamino)-7-(3-methyl-pyridin-2-yl)-quinazolin-2-ylmethyl]-phosphonic acid diethylester] had a Ki of under 1000 nM.
Regarding `CCOP(=O)(Cc1nc(Nc2ccc(C(F)(F)F)cc2)c2ccc(-c3ncccc3C)cc2n1)OCC` [Compound 5, [7-(3-Methyl-pyridin-2-yl)-4-(4-trifluoromethyl-phenylamino)-quinazolin-2-ylmethyl]-phosphonicacid diethyl ester], the Ki at human capsaicin receptor [1] is under 1000 nM.
As to `CC(C)(C)c1ccc(Nc2ncnc3cc(-c4ncccc4C(F)(F)F)ccc23)cc1OCCN1CCC[C@H]1C(=O)O` [Compound 22, (S)-1-(2-{2-tert-Butyl-5-[7-(3-trifluoromethyl-pyridin-2-yl)-quinazolin-4-ylamino]-phenoxy}-ethyl)-pyrrolidine-2-carboxylic acid], the inhibitory constant (Ki) at human capsaicin receptor [1] (setting [3]) is under 1000 nM.
As for `CC(C)(C)c1ccc(Nc2nc(CP(=O)(O)O)nc3cc(-c4ncccc4C(F)(F)F)ccc23)cc1` [Compound 32, [4-(4-tert-Butyl-phenylamino)-7-(3-trifluoromethyl-pyridin-2-yl)-quinazolin-2-ylmethyl]-phosphonicacid], at human capsaicin receptor [1] (setting [3]), the inhibition constant (Ki) was under 1000 nM.
With `COc1cc(CNC(=O)CCCC/C=C/C(C)C)ccc1O` [capsaicin], the EC90 on human capsaicin receptor [2] is about 100 nM.
As to `Cc1nc(Nc2ccc(C(C)(C)C(=O)O)cc2)c2ccc(-c3ncccc3C)nc2n1` [Compound 19, 2-Methyl-2-{4-[2-methyl-7-(3-methyl-pyridin-2-yl)-pyrido[2,3-d]pyrimidin-4-ylamino]-phenyl}-propionic acid], the inhibitory constant (Ki) on human capsaicin receptor [1] (setting [3]) is under 1000 nM.
For the compound `CC(C)(C)c1ccc(Nc2ncnc3cc(-c4ncccc4C(F)(F)F)ccc23)cc1OCCOP(=O)(O)O` [Compound 31, Phosphoric acid mono-(2-{2-tert-butyl-5-[7-(3-trifluoromethyl-pyridin-2-yl)-quinazolin-4-ylamino]-phenoxy}-ethyl) ester], the Ki at human capsaicin receptor [1] (setting [3]) was under 1000 nM.
As for `CC(C)(C)c1ccc(Nc2nc(COP(=O)(OCc3ccccc3)OCc3ccccc3)nc3cc(-c4ncccc4C(F)(F)F)ccc23)cc1` [Compound 6, Phosphoric acid dibenzyl ester 4-(4-tert-butyl-phenylamino)-7-(3-trifluoromethyl-pyridin-2-yl)-quinazolin-2-ylmethyl ester], at human capsaicin receptor [1] (setting [3]), the Ki was under 1000 nM.
As to `CC(C)(C)c1ccc(Nc2nc(COP(=O)(O)O)nc3cc(-c4ncccc4C(F)(F)F)ccc23)cc1` [Compound 7, Phosphoric acid mono-[4-(4-tert-butyl-phenylamino)-7-(3-trifluoromethyl-pyridin-2-yl)-quinazolin-2-ylmethyl] ester], at human capsaicin receptor [1] (setting [3]), the Ki was under 1000 nM.
On to `CC(C)(C)c1ccc(Nc2nc(N3CCC(C(=O)O)CC3)nc3nc(-c4ncccc4C(F)(F)F)ccc23)cc1` [Compound 44, 1-[4-(4-tert-Butyl-phenylamino)-7-(3-trifluoromethyl-pyridin-2-yl)-pyrido[2,3-d]pyrimidin-2-yl]-piperidine-4-carboxylic acid], for which, at human capsaicin receptor [1] (setting [3]), the Ki is under 1000 nM.
`CCOP(=O)(Cc1nc(Nc2ccc(C(C)(C)C)cc2)c2ccc(-c3ncccc3C(F)(F)F)cc2n1)OCC` [Compound 17, [4-(4-tert-Butyl-phenylamino)-7-(3-trifluoromethyl-pyridin-2-yl)-quinazolin-2-ylmethyl]-phosphonicacid diethyl ester]: at human capsaicin receptor [1], the Ki is under 1000 nM.
On human capsaicin receptor [1], `CCOP(=O)(O)Cc1nc(Nc2ccc(C(C)(C)C)cc2)c2ccc(-c3ncccc3C(F)(F)F)cc2n1` [Compound 18, [4-(4-tert-Butyl-phenylamino)-7-(3-trifluoromethyl-pyridin-2-yl)-quinazolin-2-ylmethyl]-phosphonicacid monoethyl ester] registered a Ki of under 1000 nM.
As for `O=C(O)CNc1nc(Nc2ccc(C(F)(F)F)cc2)c2ccc(-c3ncccc3C(F)(F)F)cc2n1` [Compound 3, [4-(4-Trifluoromethyl-phenylamino)-7-(3-trifluoromethyl-pyridin-2-yl)-quinazolin-2-ylamino]-acetic acid], the Ki on human capsaicin receptor [1] (setting [3]) is under 1000 nM.
Take `O=P(OCc1ccccc1)(OCc1ccccc1)OCc1nc(Nc2ccc(C(F)(F)F)cc2)c2ccc(-c3ncccc3C(F)(F)F)cc2n1` [Compound 8, Phosphoric acid dibenzyl ester 4-(4-trifluoromethyl-phenylamino)-7-(3-trifluoromethyl-pyridin-2-yl)-quinazolin-2-ylmethyl ester]: the Ki on human capsaicin receptor [1] (setting [3]) is under 1000 nM.
